Results from patent publication US5037637A, “Antibacterial antiplaque, anticalculus oral composition” (priority 1989, dated 1991).

Columns and labels:
[1] = Human clinical tests, reduction of plaque formation; assay type: in vivo
[2] = system: four dental plaque organisms; experiment: Antibacterial effect on the four dental plaque organisms (summary in words); assay type: cell-based; conditions: solutions without TCHE
Procedure: Slurries and solutions described below are prepared to determine effectiveness in terms of minimum inhibitory concentration (MIC) of various antibacterial agents against a variety of oral bacterial organisms implicated in formation of plaque and leading to gingivitis on dental surfaces. Soft plaque contains about 1.7×10^11 organism/gm. (net weight). The antibacterial agents are admixed with anionic materials, particularly anionic surface active agent often commonly employed in oral compositions and polyphosphate anticalculus agent.
Minimum inhibitory concentration (MIC) of antibacterial agent is used to evaluate the efficacy of the agent in vitro. […] The smaller the MIC value the greater is the efficacy of the antibacterial agent to inhibit the growth of the bacteria. The in vitro MIC data is related to the efficacy of the dentifrice in vivo since retention and release of antibacterial agent into the oral cavity after toothbrushing is in the range of mcg/ml.

[3] = system: Bacteriodes gingivalis; experiment: Antibacterial activity of dentifrice extracts, inhibition of growth; assay type: cell-based
Procedure: The dentifrice described in Example 3A is compared with the same composition except without any TCHE and with added 0.50 parts of water. Aqueous extracts of each dentifrice are prepared as follows: 50 ml of distilled water is added to 1.0 gm of each dentifrice, mixed well for a couple of hours with stirring bar and centrifuged, after which the supernatant is collected as aqueous extract. Antibacterial activity of the dentifrice extracts are evaluated on Bacteriodes gingivalis.

[4] = Adsorption of TCHE to saliva coated tooth mineral hydroxyapatite; design: species or system human; conditions: for % of TCHE Adsorbed to Coated HA: 37°, 3 hours
Procedure: The adsorption to and release from tooth minerals for antiplaque/ antitartar efficacy of agents is assessed by adsorption of antibacterial agent to saliva coated tooth mineral hydroxyapatite in the presence and the absence of pyrophosphate (soluble tetrasodium pyrophosphate)/Gantrez/NaF.
200 mg. of hydroxyapatite (HA) is treated with human saliva for 2 hours. The excess saliva is washed with a buffer and saliva coated HA is used for adsorption studies. Various concentrations of TCHE in SLS or in SLS/pyrophosphate/Gantrez/NaF are mixed with the coated HA and incubated at 37° for 3 hours under continuous agitation. At the end of incubation period, the mixtures are centrifuged, HA separated and the amounts of TCHE adsorbed determined by estimating TCHE in the supernatant at […] in a Gilford spectrophotometer. The amounts adsorbed are calculated by the difference between the amount added and the amount left in the supernatant after the incubation with coated HA. The table below summarizes the data.

Q: For CC(C)(C)CC(C)(C)c1ccc(OCCOCC[N+](C)(C)Cc2ccccc2)cc1 [BTC, benzthonium chloride], which reducing plaque formation ([1]; 0.075% BTC and 1% pyrophosphate dissolved in water) is on record?
A: The reducing plaque formation was “is not”.

Q: And the reducing plaque formation ([1]; 0.075% BTC dissolved in water)?
A: Its reducing plaque formation is “effective in reducing plaque formation”.

Q: Which reducing plaque formation ([1]; 0.1% CH and 1% sodium N-lauroyl sarcosinate dissolved in water) does the source give for [H]/N=C(\N/C(=N/[H])NCCCCCCNC(=N)NC(=N)Nc1ccc(Cl)cc1)Nc1ccc(Cl)cc1 [CH, chlorhexidine digluconate] here?
A: Its reducing plaque formation is “is not”.

Q: And the reducing plaque formation ([1]; 0.1% CH dissolved in water)?
A: The reducing plaque formation was “effective in reducing plaque formation”.

Q: With CCCCCCCCCCCCOS(=O)(=O)[O-].[Na+] [SLS, sodium lauryl sulfate] as the compound, how does the antibacterial effect [2] read?
A: The antibacterial effect was “ineffective”.

Q: With Oc1cc(Cl)ccc1Oc1ccc(Cl)cc1Cl [TCHE, 2,4,4'-trichloro-2'-hydroxydiphenyl ether] as the compound, how does the “compatibility in dentifrice composition containing anionic surfactant plus pyrophosphate with Gantrez and NaF” value ([3]; from growth inhibition by dentifrice extracts) read?
A: The value was “compatible”.

Q: What about the inhibition at 5 µg/mL ([3]; read-out: Inhibition of Growth of Bacteriodes Gingivalis) of the same compound?
A: Its inhibition at 5 µg/mL is 100%.

Q: And the “% of TCHE Adsorbed to Coated HA” value ([4]; 0.005% TCHE in 1% SLS, 0.5% Gantrez, 2% pyrophosphate/0.24% NaF)?
A: Its value is 80%.

Q: And the “% of TCHE Adsorbed to Coated HA” value ([4]; 0.005% TCHE in 1% SLS)?
A: The value was 80%.

Q: What about the “% of TCHE Adsorbed to Coated HA” value ([4]; 0.01% TCHE in 1% SLS, 0.5% Gantrez, 2% pyrophosphate/0.24% NaF) of the same compound?
A: The value was 85%.

Q: What about the “% of TCHE Adsorbed to Coated HA” value ([4]; 0.01% TCHE in 1% SLS) of the same compound?
A: Its value is 85%.

Q: What about the “% of TCHE Adsorbed to Coated HA” value ([4]; 0.015% TCHE in 1% SLS, 0.5% Gantrez, 2% pyrophosphate/0.24% NaF) of the same compound?
A: The value was 86%.

Q: And the “% of TCHE Adsorbed to Coated HA” value ([4]; 0.015% TCHE in 1% SLS)?
A: The value was 85%.

Q: What about the “% of TCHE Adsorbed to Coated HA” value ([4]; 0.02% TCHE in 1% SLS, 0.5% Gantrez, 2% pyrophosphate/0.24% NaF) of the same compound?
A: Its value is 87%.

Q: And the “% of TCHE Adsorbed to Coated HA” value ([4]; 0.02% TCHE in 1% SLS)?
A: The value was 88%.

Q: What about the “effect of addition of pyrophosphate/Gantrez/NaF on adsorption of TCHE to saliva coated tooth minerals” value ([4]; with vs without pyrophosphate/Gantrez/NaF) of the same compound?
A: The value was “does not impair adsorption”.
